Structures can show the parent of a compound that is named as a salt.
Assays:
[1] = tested on: LDLR mRNA expression in HepG2 cells; test: LDLR mRNA expression in HepG2 cells, quantitative real-time RT-PCR (Example 7); assay type: cell-based, human; conditions: dose less than or equal to 10 μM, 24 hours
Outline: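 LDLR mRNA quantified by TaqMan real-time PCR in triplicate, normalized to GAPDH and expressed relative to untreated cells set at 1 (mean±s.d.).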

[2] = tested on: intracellular triglyceride in HepG2 cells; test: Reduction of intracellular triglyceride in HepG2 cells (Example 8); assay type: cell-based, human; conditions: B, compound dose ≦40 μM
Text: Berberine chloride was used for comparison. The amount of TG in untreated control cells was defined as 100% and the amounts of TG in compound-treated cells were divided to that value.

[3] = tested on: LDLR mRNA expression in HepG2 cells; test: LDLR mRNA expression in HepG2 cells, simvastatin versus compound 91 (Example 10); assay type: cell-based, human; conditions: 24 hours, FIG. 4A
Description: (§1) In yet another experiment, HepG2 cells were treated with various compounds for 24 hours at the indicated doses. Total RNA was isolated and 2 μg was used to generate cDNA in a reaction containing random primers and M-MLV at 37° C. for 1 hour in a volume of 25 μL. Real-time PCR was performed on the cDNA using MCEP REALPLEX 2 SYSTEM (Eppendorf) and Universal MasterMix (Applied Biosystems). Human LDLR and GAPDH Pre-Developed TaqMan Assay Reagents (Applied Biosystems) were used to assess the levels of mRNA expressions in HepG2. The levels of LDLR mRNA were normalized to that of GAPDH. Each RNA samples was assayed in triplicate. The abundance of LDLR mRNA in untreated cells was defined as 1, and the amounts of LDLR mRNA from compound-treated cells were plotted relative to that value in FIG. 2B. The data shown are mean±s.d.
(§2) Total RNA was harvested for quantitative real-time RT-PCR analysis using method described in Examples 5B. The fold activity was derived by dividing the amount of normalized LDLR or PCSK9 mRNA in compound-treated cells over the amount of LDLR or PCSK9 mRNA in untreated control cells.

[4] = tested on: PCSK9 mRNA expression in HepG2 cells; test: PCSK9 mRNA expression in HepG2 cells, simvastatin versus compound 91 (Example 10); assay type: cell-based, human; conditions: 24 hours, FIG. 4B
Description: as §1, §2

[5] = tested on: LDLR mRNA expression in HepG2 cells; test: LDLR mRNA expression in HepG2 cells, Compounds 162 and 163, real-time RT-PCR (Example 13); assay type: cell-based, human; conditions: FIGS. 6A and 6B
Description: In FIG. 6A HepG2 cells were exposed to Compounds 162 and 163 at the indicated concentrations (x-axis) for 24 h and plotted against normalized LDLR mRNA levels (fold of control in absence of compound). In FIG. 6B, HepG2 cells were treated with 20 μM of each compound for the indicted times (x-axis) and plotted against normalized LDLR mRNA levels (fold of control at 24 h).
The time- and dose-dependent effects of the enantiomers of Compound 127 (Compounds 162 and 163) on LDLR mRNA expression were examined using quantitative real-time RT-PCR assays (FIGS. 6A and 6B). HepG2 cells were treated with Compound 162 and Compound 163 at indicated concentrations for various times. Total RNA was isolated and […] was used to generate cDNA in a reaction containing random primers and M-MLV at 37° C. for 1 h in a volume of 25 μL. Real-time PCR was performed on the cDNA using MCEP REALPLEX 2 SYSTEM (Eppendorf) and Universal MasterMix (Applied Biosystems). Human LDLR and GAPDH Pre-Developed TaqMan Assay Reagents (Applied Biosystems) were used to assess the levels of mRNA expressions in HepG2. The levels of LDLR mRNA were normalized to that of GAPDH. Each RNA samples was assayed in triplicate. The fold activity was calculated by dividing mRNA abundance in compound treated cells with that of control.

[6] = tested on: LDLR protein expression in HepG2 cells; test: Western blot of LDLR protein in HepG2 cells, Compounds 162 and 163; assay type: cell-based, human; conditions: 20 μM, 16 or 24 hours, FIG. 7
Description: (§3) FIG. 7 is a Western blot analysis of LDLR and PCSK9 expression in HepG2 cells. HepG2 cells seeded in 12-well culture plates were cultured in 0.5% FBS MEM overnight. Compounds 162 and 163 at 20 μM were added to cells for the indicated times. Untreated and treated cells were harvested at the same indicated time points. Total cell lysates were isolated and 50 μg per sample was analyzed for LDLR and PCSK9 protein abundance by western blotting. The membrane was reprobed with anti-actin antibody to examine the equal loading of cell lysates.
Chicken anti-LDLR was purchased from Abcam. HepG2 cells cultured in 60-mm dishes were incubated overnight in medium containing 0.5% fetal bovine serum prior to the addition of compounds at 20 μM concentration. After 16 or 24 hours of treatment, total cell lysate was isolated and 50 μg of protein was separated on SDS-PAGE and transferred to nitrocellulose membrane for immunoblotting with anti-LDLR.

[7] = tested on: PCSK9 protein expression in HepG2 cells; test: Western blot of PCSK9 protein in HepG2 cells, Compounds 162 and 163; assay type: cell-based, human; conditions: 20 μM, time-dependent, FIG. 7
Description: as §3
Recent studies have identified the liver secreted serine protease PCSK9 (proprotein convertase subtilisin type 9) as a natural inhibitor of LDLR protein expression that degrades hepatic LDLR protein, thus increasing circulating LDL-C levels.

in vivo = test: in vivo; parameters: species or system Golden Syrian hamsters; conditions: hamster, po
Description: For testing the efficacy of Compound 141 (phosphate salt of Compound 127) or its enantiomers (Compound 162/Compound 163) the following suspension formulation procedure was developed to make 100 ml of Compound 141 in suspension at 10 mg/ml concentration in 0.1 M tartaric buffer pH. 3 containing 0.5% hydroxypropylcellulose H-type (HPC-H):
Step 1: 1.50 g L-(+)-tartaric acid was dissolved in 100 mL water to prepare a tartaric acid solution. The solution was adjusted to pH 3 with 1.2 mL 5N NaOH solution to provide the tartaric acid buffer (100 mM). Step 2: 0.5 g HPC-H powder was added to 10 mL tartaric acid buffer (100 mM) at 50° C. The slurry was stirred for 30 minutes, and then diluted with 90 mL tartaric acid buffer (100 mM) at room temperature to provide 0.5% HPC-H. Agitation was continued until all particles were dissolved and the solution was completely free of gels. Step 3: 1.20 g Compound 141 (or Compound 162 or Compound 163) and 1.20 g mannitol were mixed and ground through a 120 mesh sieve, then the mixture was ground slightly again. The mixture was dispersed in 100 mL 0.5% HPC-H-L-(+)-Tartaric acid buffer (pH=3), then stirred until the drug dispersed evenly. The final pH was 2.6. All the above procedures were completed at room temperature (˜25° C.). The final concentration of Compound 141 was 10 mg/ml after correction of the salt weight.
The pharmacokinetic profile and bioavailability of Compound 141 (phosphate salt of Compound 127) in male Wistar rats following single intravenous (iv) and oral administration (p.o.) were measured according to the procedures of Example 4 and are summarized in Table 11. The pharmacokinetic profile of Compound 162 in male Golden Syrian masters following oral administration (pox) is summarized in Table 12.

Compound | Activity on LDLR mRNA expression (Fold of control) [1] | Activity on reduction of cellular TG accumulation (% of control) [2] | LDLR mRNA expression [3] | PCSK9 mRNA expression [4] | LDLR mRNA expression [5] | LDLR mRNA and protein expression [6] | PCSK9 cellular levels [7] | pharmacokinetic properties and bioavailability, in words (in vivo)
COc1cc2c(cc1OC)C1Cc3ccc(OC)c(OS(=O)(=O)c4ccccc4)c3CN1CC2 (centres unmarked) [Compound 91, 2,3,10-trimethoxy-5,6,7,8,13,13a-hexahydroisoquinolino[2,1-b]isoquinolin-9-yl benzenesulfonate] | 3.77 ± 0.20 Fold of control | 71.17 ± 2.23 % of control | dose-dependently increases | inhibits |  |  |  | 
COc1cc2c(cc1OC)C1Cc3ccc(OC)c(OS(=O)(=O)c4cccc(F)c4)c3CN1CC2 (single isomer, unassigned) [Compound 163, 2,3,10-Trimethoxy-5,6,7,8,13,13a-hexahydroisoquinolin[2,1-b]isoquinolin-9-yl 3-fluorobenzenesulfonate phosphate Salt (Enantiomer having negative optical rotation)] |  |  |  |  | upregulate LDLR mRNA expression | significantly enhance | greatly decreased | excellent pharmacokinetic properties and good bioavailability

From patent publication US20110009628A1, “Compounds and Compositions for Modulating Lipid Levels and Methods of Preparing Same” (priority 2009, published 2011)
